Measurements: patent US20250154546A1, “USE OF 3'-OXYMETHYLENE ALKYL DISULFIDE PROTECTED NUCLEOTIDES FOR ENZYMATIC DNA AND RNA SYNTHESIS” (Miltenyi Biotec B.V. & Co. KG, priority 2022, published 2025)

Experiment: Cleave kinetics of 3′-O-capped nucleotide in cleave mix, monitored by UPLC
Assay type: physicochemical
Settings: 10 mM Mg2+ in the cleave mix versus none; 20 mM DMPS, pH 9.5
Procedure: A 3′-O-capped nucleotide was treated with a cleave mix DMPS/THPP and the concentration of the 3′-capped nucleotide was monitored by UPLC with a UV detector at a fixed time interval.
In [A]=−kt+In[A]0 and t1/2=In2/k with [A]: reactant concentration; k: reaction rate coefficient
Nucleotide: MeSSdATP, 4.7 mM in 1× TE buffer;
12.8 μL of nucleotide was added to 287 μL of cleave mix in a 1.5 mL of UPLC sample vial. The resulting mixture was analyzed by UPLC right away and every 10 min afterwards automatically for up to 120 min. The area of the starting nucleotide peak was measured at each time point and the value was used directly for the calculation. From the rate of peak area reduction or disappearance of the intermediate the rate constant and the half-life of the intermediate calculated as discussed earlier.

SMILES: CSSCO[C@H]1C[C@H](n2cnc3c(N)ncnc32)O[C@@H]1COP(=O)(O)OP(=O)(O)OP(=O)(O)O [MeSSdATP, 3′-O—(MeSSCH2)-dATP]
- reduction of half-life: ≤ 30%
